Results published in patent US12459951B2, “Compounds that interact with RAS superfamily proteins for treatment of cancers, inflammatory diseases, rasopathies, and fibrotic disease” (SHY Therapeutics, LLC, priority 2022, dated 2025).

Key:
KRas Q61H mutant = assay: Ras GTP Binding Domain Inhibition Assay (Ras Superfamily Assay); conditions: 20 μM compound; for KRas Q61H mutant + SOS: % inh.: with SOS; for KRas Q61H mutant: % inh.: without SOS
Summary of the method: (§1)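 Binding of 100 nM fluorescent GTP (Cy3 or Cy5, 45 min, room temperature) was read after washes from plate-captured His-tagged protein. Beforehand, compounds at 20 μM or in dilution series for IC50 sat 3 h on the protein in Tris buffer pH 7.4 or 7.0 with 1% DMSO, Sos GEF optionally added for the last hour.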

KRas G12C mutant = assay: as above; conditions: for KRas G12C mutant + SOS: % inh.: with SOS; for KRas G12C mutant: % inh.: without SOS
Summary of the method: as §1

Rho-A = target: T1, Rho-A (Homo sapiens, UniProt P61586); assay: as above; conditions: read-out: Rho-A: % inh..
T1 construct: made in house
T1 sequence (P61586 whole entry): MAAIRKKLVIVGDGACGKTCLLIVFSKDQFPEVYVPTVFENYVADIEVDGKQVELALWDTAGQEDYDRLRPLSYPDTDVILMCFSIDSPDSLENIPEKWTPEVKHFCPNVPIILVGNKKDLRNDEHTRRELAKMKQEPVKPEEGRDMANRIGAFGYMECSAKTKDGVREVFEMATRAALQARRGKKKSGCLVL
Summary of the method: as §1

[1] = Mouse Liver Microsome Metabolic Stability Assay; type: in vitro ADME; conditions: pH 7.4, Mouse liver microsomes, 37° C., NADPH, read-out: t½
Experimental: Biological Example 10: Assessment of Metabolic Stability in Mouse Liver Microsomes
Metabolic Stability Assay: Microsomal incubations were carried out in 96-well plates in 5 aliquots of 30 μL each (one for each time point). Liver microsomal incubation medium comprised of phosphate buffer (100 mM, pH 7.4), MgCl2 (3.3 mM), NADPH (3 mM), glucose-6-phosphate (5.3 mM), glucose-6-phosphate dehydrogenase (0.67 units/ml) with 0.42 mg of liver microsomal protein per mL. In the control reactions the NADPH-cofactor system was substituted with phosphate buffer. Test compounds (2 μM, final solvent concentration 1.6%) were incubated with microsomes at 37° C., shaking at 100 rpm. Each reaction was performed in duplicates. Five time points over 40 minutes were analyzed. The reactions were stopped by adding 5 volumes of methanol containing internal standard to incubation aliquots, followed by protein sedimentation by centrifuging at 5500 rpm for 4 minutes. Supernatants were analyzed using the HPLC system coupled with tandem mass spectrometer.
The elimination constant (kel), half-life (t1/2) and intrinsic clearance (Clint) were determined in plot of […] versus time, using linear regression analysis:
In order to indicate the quality of the linear regression analysis, the R (correlation coefficient) values are provided. In some cases, the last time point is excluded from the calculations to ensure acceptable logarithmic linearity of decay.
Table 9 show metabolic stability data for selected compounds tested in the Mouse Liver Microsome Metabolic Stability assay described above.

| Structure (SMILES) | KRas Q61H mutant + SOS: % inh. (KRas Q61H mutant) | KRas Q61H mutant: % inh. (KRas Q61H mutant) | KRas G12C mutant + SOS: % inh. (KRas G12C mutant; 20 μM compound) | KRas G12C mutant: % inh. (KRas G12C mutant; 20 μM compound) | inhibition at 20 µM (Rho-A) | half-life at 2 µM [1] | KRas G12C mutant + SOS: % inh. (KRas G12C mutant; at 20 μM) | KRas G12C mutant: % inh. (KRas G12C mutant; at 20 μM) |
| --- | --- | --- | --- | --- | --- | --- | --- | --- |
| COCC1CCN(c2nc(-c3ccccn3)nn3cc(-c4ccn(C(C)C)n4)c(C)c23)C1 (racemic) [Compound 10, rac 6-(1-Isopropyl-1H-pyrazol-3-yl)-4-(3-(methoxymethyl)pyrrolidin-1-yl)-5-methyl-2-(pyridin-2-yl)pyrrolo[2,1-f][1,2,4]triazine] | 0 (0 = 0% inhibition) | A (A = 1-25% inhibition) | 0 (0 = 0% inhibition) | B (B = 26-49% inhibition) | 0% |  |  |  |
| COc1cccc(-c2cn3nc(-c4nccn4C)nc(O)c3c2C)c1Cl [Compound 15, 6-(2-Chloro-3-methoxyphenyl)-5-methyl-2-(1-methyl-1H-imidazol-2-yl)pyrrolo[2,1-f][1,2,4]triazin-4-ol] | A (A = 1-25% inhibition) | A (A = 1-25% inhibition) | 0 (0 = 0% inhibition) | 0 (0 = 0% inhibition) | 1 to 25% |  |  |  |
| COC[C@@H]1CC[C@@H]1CNc1nc(-c2ccccn2)nn2cc(-c3ccn(C(C)C)n3)c(C)c12 (racemic) [Compound 11, rac 6-(1-Isopropyl-1H-pyrazol-3-yl)-N-(((1S,2R)-2-(methoxymethyl)cyclobutyl)methyl)-5-methyl-2-(pyridin-2-yl)pyrrolo[2,1-f][1,2,4]triazin-4-amine] | 0 (0 = 0% inhibition) | A (A = 1-25% inhibition) | 0 (0 = 0% inhibition) | B (B = 26-49% inhibition) | 0% |  |  |  |
| COCCNc1nc(-c2nccn2C)nn2cc(-c3cccc(OC)c3Cl)c(C)c12 [Compound 16, 6-(2-Chloro-3-methoxyphenyl)-N-(2-methoxyethyl)-5-methyl-2-(1-methyl-1H-imidazol-2-yl)pyrrolo[2,1-f][1,2,4]triazin-4-amine] | 0 (0 = 0% inhibition) | A (A = 1-25% inhibition) | 0 (0 = 0% inhibition) | B (B = 26-49% inhibition) | 0% |  |  |  |
| COc1cccc(Nc2nc(-c3ccccn3)nn3cc(-c4ccn(C(C)C)n4)c(C)c23)n1 [Compound 14, 6-(1-Isopropyl-1H-pyrazol-3-yl)-N-(6-methoxypyridin-2-yl)-5-methyl-2-(pyridin-2-yl)pyrrolo[2,1-f][1,2,4]triazin-4-amine] | 0 (0 = 0% inhibition) | 0 (0 = 0% inhibition) | 0 (0 = 0% inhibition) | B (B = 26-49% inhibition) | 0% |  |  |  |
| COC1CCCN(c2nc(-c3ccccn3)nn3cc(-c4ccn(C(C)C)n4)c(C)c23)C1 (racemic) [Compound 12, rac 6-(1-Isopropyl-1H-pyrazol-3-yl)-4-(3-methoxypiperidin-1-yl)-5-methyl-2-(pyridin-2-yl)pyrrolo[2,1-f][1,2,4]triazine] | 0 (0 = 0% inhibition) | 0 (0 = 0% inhibition) | 0 (0 = 0% inhibition) | B (B = 26-49% inhibition) | 0% |  |  |  |

Other lines, results leading:

| KRas Q61H mutant + SOS: % inh. (KRas Q61H mutant) | KRas Q61H mutant: % inh. (KRas Q61H mutant) | KRas G12C mutant + SOS: % inh. (KRas G12C mutant; 20 μM compound) | KRas G12C mutant: % inh. (KRas G12C mutant; 20 μM compound) | inhibition at 20 µM (Rho-A) | half-life at 2 µM [1] | KRas G12C mutant + SOS: % inh. (KRas G12C mutant; at 20 μM) | KRas G12C mutant: % inh. (KRas G12C mutant; at 20 μM) | Structure (SMILES) |
| --- | --- | --- | --- | --- | --- | --- | --- | --- |
|  |  |  |  |  | > 10 min |  |  | COc1cc(Nc2nc(-c3nccn3C)nn3cc(-c4ccn(C)n4)c(C)c23)ncc1C1CC1 [Compound 238, N-(5-Cyclopropyl-4-methoxypyridin-2-yl)-5-methyl-2-(1-methyl-1H-imidazol-2-yl)-6-(1-methyl-1H-pyrazol-3-yl)pyrrolo[2,1-f][1,2,4]triazin-4-amine] |
|  |  |  |  |  | > 10 min |  |  | COc1cc(Nc2nc(-c3nccn3C)nn3cc(-c4ccn(C)n4)c(C)c23)ncc1C [Compound 235, N-(4-Methoxy-5-methylpyridin-2-yl)-5-methyl-2-(1-methyl-1H-imidazol-2-yl)-6-(1-methyl-1H-pyrazol-3-yl)pyrrolo[2,1-f][1,2,4]triazin-4-amine] |
|  |  |  |  |  | > 10 min |  |  | COc1ccc(Nc2nc(-c3nccn3C)nn3cc(-c4ccn(C)n4)c(C)c23)nc1 [Compound 224, N-(5-Methoxypyridin-2-yl)-5-methyl-2-(1-methyl-1H-imidazol-2-yl)-6-(1-methyl-1H-pyrazol-3-yl)pyrrolo[2,1-f][1,2,4]triazin-4-amine] |
| 0 (0 = 0% inhibition) | 0 (0 = 0% inhibition) | 0 (0 = 0% inhibition) | A (A = 1-25% inhibition) | 0% |  |  |  | COc1cc(Nc2nc(-c3ccccn3)nn3cc(-c4ccn(C(C)C)n4)c(C)c23)ncn1 [Compound 13, 6-(1-Isopropyl-1H-pyrazol-3-yl)-N-(6-methoxypyrimidin-4-yl)-5-methyl-2-(pyridin-2-yl)pyrrolo[2,1-f][1,2,4]triazin-4-amine] |
|  |  |  |  |  |  | D (D = 76-100% inhibition) | C (C = 50-75% inhibition) | Cc1c(-c2ccn(C)n2)cn2nc(-c3nccn3C)nc(N)c12 [Compound 211, 5-Methyl-2-(1-methyl-1H-imidazol-2-yl)-6-(1-methyl-1H-pyrazol-3-yl)pyrrolo[2,1-f][1,2,4]triazin-4-amine] |
|  |  |  |  |  | > 10 min |  |  | Cc1ccc(Nc2nc(-c3nccn3C)nn3cc(-c4ccn(C)n4)c(C)c23)nc1 [Compound 226, 5-Methyl-2-(1-methyl-1H-imidazol-2-yl)-6-(1-methyl-1H-pyrazol-3-yl)-N-(5-methylpyridin-2-yl)pyrrolo[2,1-f][1,2,4]triazin-4-amine] |
|  |  |  |  |  | > 10 min |  |  | Cc1c(-c2ccn(C)n2)cn2nc(-c3nccn3C)nc(Nc3ccc(N(C)C)cn3)c12 [Compound 227, N5,N5-Dimethyl-N2-(5-methyl-2-(1-methyl-1H-imidazol-2-yl)-6-(1-methyl-1H-pyrazol-3-yl)pyrrolo[2,1-f][1,2,4]triazin-4-yl)pyridine-2,5-diamine] |
|  |  |  |  |  | < 10 min |  |  | Cc1c(-c2ccn(C)n2)cn2nc(-c3nccn3C)nc(Nc3cc(N4CCOCC4)ccn3)c12 [Compound 222, 5-Methyl-2-(1-methyl-1H-imidazol-2-yl)-6-(1-methyl-1H-pyrazol-3-yl)-N-(4-morpholinopyridin-2-yl)pyrrolo[2,1-f][1,2,4]triazin-4-amine] |
